The source of these data is a melting point compilation (Tetko et al.; mined from patent text by program, amines drawn as free bases though some values may be those of a salt).

Each structure is given as a SMILES string.

By melting point is commonly meant the temperature of the solid-liquid transition. `CC(=O)N1CCN(c2ccc(Nc3nccc(-c4sc(N)nc4C)n3)cc2)CC1`: the melting point fell in the range of 267 to 269 °C. The result for `CCOCc1nc2c(N)nc3ccccc3c2n1Cc1cc(-c2ccccc2)no1` reads 215 to 216 °C. The result for `O=[N+]([O-])c1ccc(Br)c2nsnc12` reads 216 to 218 °C; that for `COc1cc(Oc2cccc(OC(F)(F)F)c2)nc(C(=O)Nc2ccccc2)c1`, 95 to 98 °C.

Molecule `O=C(N[C@@H](Cc1ccccc1)C(=O)O)OCC1c2ccccc2Oc2ccccc21` had a melting point of 143 to 145 °C. In the case of `COC(=O)c1ccnc(NC(=O)C(CSC(C)=O)Cc2ccccc2)c1` (configuration not stated) it was 137 to 139 °C; in that of `CC1(C)CCCN(C(=O)[C@H]2C[C@H](S(=O)(=O)c3ccccc3)[C@@H](c3ccccc3F)N2)C1` (racemic), 210 °C. In the case of `CC#CCOc1ccc(S(=O)(=O)C2(C(=O)O)CCN(Cc3ccc(Cl)c(Cl)c3)CC2)cc1` it was 213 °C; in that of `CCOC(=O)c1cc(-c2ccc(Cl)cc2)c(Cl)nc1NC=O`, 184 to 187 °C. `COC(=O)c1cc(C(=O)O)c2c(Cl)cc(Cl)cc2n1` displayed a melting point of 260 to 262 °C. Consider `CCn1cc(C(=O)O)c(=O)c2cc(F)c(N3CCN(Cc4ccc(N)cc4)CC3)c(F)c21`, for which the melting point lay within 220 to 221 °C. In the case of `O=C(Nc1cccnn1)N1CCN(c2nc(-c3ccccc3)ns2)CC1` it was 185 to 186 °C. The result for `CC(C)(C)OC(=O)C1CCCN2CC(CBr)C(=O)N12` (configuration not stated) reads 88 to 89 °C. Consider `N#CCOc1cc(Cl)c2c(=O)c(-c3ccccc3Cl)coc2c1`, for which the melting point was 174 to 175 °C. In the case of `CCOC(=O)CCc1cc(-c2ccc(C)cc2)n(-c2ccc(S(N)(=O)=O)cc2)n1` it was 116 to 117 °C; in that of `CCOCCn1c(NC2CCN(C(=O)c3cc(C(F)(F)F)cc(C(F)(F)F)c3)C(Cc3ccccc3)C2)nc2ccccc21` (configuration not stated), 178 °C; in that of `Cn1c(CN2CCOCC2)nc([N+](=O)[O-])c1C#N`, 112 to 115 °C. In the case of `CCCCc1nn(-c2ccccc2C(F)(F)F)c(=O)[nH]1` it was 124 to 126 °C; in that of `COc1ccc(N2C(=O)C(Oc3ccccc3)C2c2ccc(C(=O)O)cc2)cc1` (configuration not stated), 246 °C. `CCOC(=O)N(C)CCCC1c2cccc3c2N(CC3)c2ccccc2N1C(C)=O` (configuration not stated) returned a melting point of 125 to 128 °C. The result for `CCNC(=O)c1ccc(N2CCN(Cc3cc4c(c(OC(F)F)c3)OC(C)C(=O)N4)CC2)c(Cl)c1` (configuration not stated) reads 102 to 104 °C; that for `COc1ccc(-c2sc(Nc3cnccn3)nc2C)cc1S(N)(=O)=O`, 378 °C; that for `CN1CCC(C(C(=O)N2CCCC2)(c2ccccc2)c2ccccc2)C1` (configuration not stated), 137 to 140 °C. In turn, `COc1ccsc1S(=O)(=O)Nc1nc2c(OC)cnc(OC)n2n1` came in with a melting point of 227 to 228 °C. In the case of `COc1ncc(C)nc1NS(=O)(=O)c1cccc(Cl)c1Cl` it was 50 to 60 °C; in that of `COc1cc(COc2nn(-c3ccccc3)cc2/C=C/c2csc(C(C)(C)C)n2)ccc1OCc1nc(-c2ccc(CC(=O)O)cc2)oc1C`, 113 to 115 °C; in that of `NC(=O)OCC(OC(N)=O)c1ccccc1Cl` (configuration not stated), 167 to 169 °C. The result for `Cc1c(C)c2c(c(C)c1N)OC(C)(C)C2Cc1ccccc1` (configuration not stated) reads 75 to 76 °C; that for `Cc1cc(S(N)(=O)=O)ccc1-n1nc(C(F)(F)F)cc1-c1ccc(-c2ccco2)cc1`, 87 to 89 °C. The result for `CC(=O)Nc1ccc2cc(S(N)(=O)=O)sc2c1` reads 214 to 217 °C; that for `CCOc1nn(-c2ccc(C(F)(F)F)cn2)cc1CCCOc1cccc(OC)c1CC(=O)O`, 150 to 151 °C. In the case of `CCCOc1nc(N)c2ncn(C3CCCCO3)c2n1` (configuration not stated), the melting point is 138 to 140 °C. On to `C=C(C)c1ccc(C(C)(c2ccc(C(=C)C)cc2)c2ccc(C(=C)C)cc2)cc1`, for which the melting point amounted to 28 °C.

`CC1=C(C(=O)OCc2ccccc2)C(c2ccccc2Cl)c2c[nH]nc2N1` (configuration not stated) showed a melting point of 234 °C. The result for `N#Cc1c(N2CCN(C(=O)c3cccs3)CC2)c2cc(Cl)cnc2[nH]c1=O` reads 158 °C; that for `O=C1c2ccccc2CN1CCN1CCC(Cc2c[nH]c3ccc(F)cc23)CC1`, 175 °C; that for `OCc1ccc(OCc2ccccc2)c2c1OCCO2`, 106 °C.

`CCC(CC)n1nnc2c([N+](=O)[O-])cccc21`: the melting point was 129 to 132 °C.

As for `Cn1cc(-c2ccc(Cl)c(C(F)(F)F)c2)c(=O)c(C(F)(F)F)c1`, the melting point was in the range of 164 to 165 °C. Regarding `CCOC(=O)c1cnc2c([N+](=O)[O-])cc(CN3CCOCC3)cc2c1O`, the melting point fell in the range of 214 to 216 °C.

For the molecule `CN1CC[C@@H](c2c(O)cc(O)c3c(=O)cc(-c4cccc(F)c4)oc23)[C@@H]1CO`, the melting point is 218 to 220 °C. In the case of `Cn1c(C(F)(F)F)cc(=O)n(-c2c(O)cc(F)cc2F)c1=O`, the melting point was 195 to 196 °C.

`COc1cc(OC)cc(C(=O)N2CCc3cc(O)c(OC)cc3C2=O)c1` showed a melting point of 198 to 199 °C. In turn, `Cn1cc(C(=O)NCc2ccc(Cl)cc2)c(=O)c2sc(C=O)c(COCC[Si](C)(C)C)c21` registered a melting point of 174 to 176 °C. Molecule `COc1ccc2c(c1)c1c(n2Cc2ccccc2)CCCC1C(=O)O` (configuration not stated) showed a melting point of 179 to 183 °C. Turning to `COc1cc(COc2nn(-c3ccccc3)cc2C#N)ccc1OCc1nc(-c2ccccc2)oc1C`, the melting point fell in the range of 174 to 175 °C. The result for `O=C1Cc2ccccc2SN(CCO)C1` reads 173 to 175 °C; that for `Cc1cccc(-c2[nH]c(C(C)C)nc2-c2cccc(-c3ccc(C)[nH]3)c2)n1`, 128 to 130 °C. The result for `CCN(CC)CC1CCCCN1CC#CCN1c2ccccc2C(=O)Nc2cccnc21` (configuration not stated) reads 132 to 134 °C.

Molecule `CCOC(=O)Nn1cccc1` showed a melting point of 60 to 61 °C. Consider `COC1c2sccc2C(=O)c2ccccc2C1Br` (configuration not stated), for which the melting point was 103 to 106 °C. `COCSCCNC(=C[N+](=O)[O-])NCC(O)c1ccccc1` (configuration not stated) gave a melting point of 107 to 110 °C. For `Cc1noc(C)c1S(=O)(=O)n1c(=O)sc2ccccc21`, the melting point fell in the range of 140 to 144 °C. In the case of `Cc1cc(C(O)=S)cc(N)c1C(=O)c1ccccc1` it was 158 to 159 °C; in that of `Nc1ccc2c(c1)OC1(CC1)C2=O`, 188 to 189 °C; in that of `Cc1nc(N2CCN(Cc3ccccc3)C2=N)sc1C(=O)NCc1ccccc1`, 125 to 126 °C. Turning to `CC(C)c1cc2nc(N)[nH]c(=O)c2cc1-c1ccc(Cl)cc1`, the melting point lay in the range of 326 to 330 °C.

Consider `Cc1cccc(NC(=O)NCC(=O)N2[C@@H](C(=O)OC(C)(C)C)C[C@@H](C#N)[C@H]2c2ccccc2)c1` (racemic), for which the melting point was determined as 150 °C. `CN(C)C(=O)c1cc(Cl)ccc1N` came in with a melting point of 97 to 98 °C. `OCc1cccc(-c2ncc(OCCN3CCOCC3)cn2)c1`: the melting point fell in the range of 101 to 102 °C. In turn, `O=C(O)COc1cc(F)ccc1C(=O)NCc1cccc([N+](=O)[O-])c1` returned a melting point of 148 to 151 °C. In the case of `Oc1cc(-c2ccccc2)ncn1` it was 266 to 267 °C.
